Patent publication US9630978B2, “Polycyclic-carbamoylpyridone compounds and their pharmaceutical use” (Gilead Sciences, Inc., priority 2015, dated 2017)
Like-named read-outs stand apart in the source and are kept apart here.

Tests used:
Type in all cases: cell-based
HIV-IIIb = assay: Antiviral assay in MT4 cells; details: MT4 cells infected with HIV-IIIb (0.004 m.o.i.), 5 days incubation, CellTiter-Glo, average over assays
Protocol: (§1) For the antiviral assay utilizing MT4 cells, 0.4 μL of 189X test concentration of 3-fold serially diluted compound in DMSO was added to 40 μl of cell growth medium (RPMI 1640, 10% FBS, 1% penicillin/streptomycin, 1% L-Glutamine, 1% HEPES) in each well of 384-well assay plates (10 concentrations) in quadruplicate.
(§2) 1 mL aliquots of 2×10^6 MT4 cells are pre-infected for 1 and 3 hours respectively at 37° C. with 25 μL (MT4) or of either cell growth medium (mock-infected) or a fresh 1:250 dilution of an HIV-IIIb concentrated ABI stock (0.004 m.o.i. for MT4 cells). Infected and uninfected cells are diluted in cell growth medium and 35 μL of 2000 (for MT4) cells is added to each well of the assay plates.
(§3) Assay plates were then incubated in a 37° C. incubator. After 5 days of incubation, 25 μL of 2× concentrated CellTiter-Glo™ Reagent (catalog # G7573, Promega Biosciences, Inc., Madison, Wis.) was added to each well of the assay plate. Cell lysis was carried out by incubating at room temperature for 2-3 minutes, and then chemiluminescence was read using the Envision reader (PerkinElmer).

[1] = Cytotoxicity (CC50) in MT4 cells within the antiviral assay; details: human, MT4 cells (mock-infected); MT4 cells, 5 days incubation, CellTiter-Glo; average over assays
Protocol: as §1, §2, §3

MT4 cells = assay: as above
Protocol: as §1, §2, §3

[2] = Human immunodeficiency virus 1, IIIB, MT4, 120 h
[3] = MT4 cells, 5 days incubation, CellTiter-Glo, average over assays, read-out: CC50

EC50 (HIV-IIIb; [2]) [µM]	EC50 (HIV-IIIb) [µM]	Compound	CC50 at 5 days [1] [µM]	CC50 (MT4 cells; [3]) [µM]	CC50 (MT4 cells) [µM]
0.00443		O=C(NCc1ccc(F)c(Cl)c1F)c1cn2c(c(O)c1=O)C(=O)N1CCO[C@]13CCCC[C@H]23 (racemic) [Compound 96]	1.37		
0.0012		O=C(NCc1ccc(F)c(Cl)c1F)c1cn2c(c(O)c1=O)C(=O)N1CCS[C@]13COCC[C@H]23 (racemic) [Compound 103]		10.8	
0.00317		C[C@@H]1CN2C(=O)c3c(O)c(=O)c(C(=O)NCc4ccc(F)c(Cl)c4F)cn3[C@@H]3CCC[C@@]32O1 (single isomer, unassigned) [Compound 74]	5.77		
0.00462		O=C(NCc1ccc(F)c(Cl)c1F)c1cn2c(c(O)c1=O)C(=O)N1CC=CC[C@]13CCOC[C@H]23 [Compound 14]		8.02	
	0.00464	O=C(NCc1ccc(F)c(Cl)c1F)c1cn2c(c(O)c1=O)C(=O)N1CCCC[C@]13CCOC[C@H]23 [Compound 15]			7.52
	0.00263	O=C(NCc1ccc(F)c(Cl)c1F)c1cn2c(c(O)c1=O)C(=O)N1CCCC[C@]13COCC[C@H]23 [Compound 26]			22.1
0.00238		O=C(NCc1ccc(F)c(Cl)c1F)c1cn2c(c(O)c1=O)C(=O)N1CC=CC[C@]13COC[C@H]23 [Compound 41]	9.19		
0.00349		O=C(NCc1ccc(F)c(Cl)c1F)c1cn2c(c(O)c1=O)C(=O)N1CCCC[C@]13COC[C@H]23 [Compound 42]	7.48		
	0.00383	C[C@@H]1CN2C(=O)c3c(O)c(=O)c(C(=O)NCc4ccc(F)c(Cl)c4F)cn3[C@H]3CCC[C@]32O1 [Compound 73]			3.32
0.0118		C[C@H]1CCO[C@]23CCC[C@H]2n2cc(C(=O)NCc4ccc(F)c(Cl)c4F)c(=O)c(O)c2C(=O)N13 [Compound 80]		17.5	
	0.00188	C[C@@H]1CO[C@@]23CCOC[C@@H]2n2cc(C(=O)NCc4ccc(F)c(Cl)c4F)c(=O)c(O)c2C(=O)N13 [Compound 94]	3.99		
0.00182		C[C@@H]1CO[C@@]23CCOC[C@@H]2n2cc(C(=O)NCc4ccc(F)c(Cl)c4F)c(=O)c(O)c2C(=O)N13 [Compound 100]		7.53	

Second part, the compound before the results:

Compound	EC50 (HIV-IIIb; [2]) [µM]	EC50 (HIV-IIIb) [µM]	CC50 at 5 days [1] [µM]	CC50 (MT4 cells; [3]) [µM]	CC50 (MT4 cells) [µM]
O=C(NCc1ccc(F)c(Cl)c1F)c1cn2c(c(O)c1=O)C(=O)N1CC=CC[C@]13COCC[C@H]23 [Compound 25]		0.00242		22.1	
O=C(NCc1c(F)cc(F)cc1F)c1cn2c(c(O)c1=O)C(=O)N1CC=CC[C@]13COCC[C@H]23 [Compound 30]	0.00259		33.1		
O=C(NCc1c(F)cc(F)cc1F)c1cn2c(c(O)c1=O)C(=O)N1CCCC[C@]13COCC[C@H]23 [Compound 31]	0.00194			33.6	
C[C@@H]1CO[C@@]23CCC[C@@H]2n2cc(C(=O)NCc4ccc(F)c(Cl)c4F)c(=O)c(O)c2C(=O)N13 [Compound 65]	0.00413		5.53		
C[C@@H]1CO[C@@]23CCC[C@@H]2n2cc(C(=O)NCc4c(F)cc(F)cc4F)c(=O)c(O)c2C(=O)N13 [Compound 66]	0.00253		6.92		
C[C@H]1CO[C@]23CCC[C@H]2n2cc(C(=O)NCc4ccc(F)c(Cl)c4F)c(=O)c(O)c2C(=O)N13 [Compound 69]	0.00802		15.6		
C[C@H]1CO[C@]23CCC[C@H]2n2cc(C(=O)NCc4c(F)cc(F)cc4F)c(=O)c(O)c2C(=O)N13 [Compound 70]	0.0047		16.4		
C[C@@H]1CCO[C@@]23CCC[C@@H]2n2cc(C(=O)NCc4ccc(F)c(Cl)c4F)c(=O)c(O)c2C(=O)N13 [Compound 77]	0.00702		7.27		
